In patent publication US20240083892A1 (BISICHEM CO., LTD., priority 2021, published 2024):

Assays:
[1] = target: T1, RIPK1 (Homo sapiens, UniProt Q13546); experiment: Cell-based necroptosis assay for RIPK1 activity (cell viability by CCK-8); details: HT-29 cells; Z-VAD-FMK 20 μM, human TNFα 10 ng/ml, SM-164 100 nM; 24 h; read-out: Cell-base RIPK1 activity: Necroptosis
T1 construct: endogenous in cells; host or cells: HT-29 (KCLB 30038)
T1 sequence (Q13546 1-671): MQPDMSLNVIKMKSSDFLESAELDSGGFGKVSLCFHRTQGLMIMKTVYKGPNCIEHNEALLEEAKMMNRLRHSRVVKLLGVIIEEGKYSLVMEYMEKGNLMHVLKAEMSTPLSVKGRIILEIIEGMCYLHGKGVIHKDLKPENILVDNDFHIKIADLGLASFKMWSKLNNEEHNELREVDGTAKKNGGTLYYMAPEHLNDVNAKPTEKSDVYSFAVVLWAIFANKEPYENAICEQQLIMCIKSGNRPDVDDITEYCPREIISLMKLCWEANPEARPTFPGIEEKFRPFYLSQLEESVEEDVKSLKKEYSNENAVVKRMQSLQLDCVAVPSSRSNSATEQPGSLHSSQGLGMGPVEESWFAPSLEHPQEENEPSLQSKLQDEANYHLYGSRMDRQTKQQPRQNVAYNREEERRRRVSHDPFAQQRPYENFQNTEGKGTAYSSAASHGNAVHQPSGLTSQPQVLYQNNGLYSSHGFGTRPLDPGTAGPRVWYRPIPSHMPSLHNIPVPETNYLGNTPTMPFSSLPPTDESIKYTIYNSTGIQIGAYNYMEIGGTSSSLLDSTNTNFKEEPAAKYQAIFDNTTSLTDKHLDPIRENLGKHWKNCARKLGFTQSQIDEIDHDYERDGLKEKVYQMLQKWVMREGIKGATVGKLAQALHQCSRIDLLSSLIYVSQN
Experimental: (§1) Human colon carcinoma cell HT-29 (KCLB 30038), BV2 mouse microglial cell (cell was a kind gift from Dr. Nak-Yun Sung, Senior researcher at Korea Prime Pharmacy CO., LTD.) and human microglial cell HMC3 (ATCC® CRL-3304™). HT-29 cell was grown in Roswell Park Memorial Institute (RPMI) 1640, BV2 cell was grown in Dulbecco's Modified Eagle's Medium (DMEM) and HMC3 cell was grown in Minimum Essential Media Eagle (MEM) supplemented with 10% fetal bovine serum and 1% mixture of penicillin and streptomycin (Gibco). Cells were maintained at 37° C. in a humidified 5% CO2 atmosphere.
To measure the activity of RIPK1 inhibitor in necroptotic cells, HT-29 cells were treated by control DMSO, human TNFα (Peprotech, Rocky Hill, USA), SM-164 (Biovision, California, USA) and a pan-caspase inhibitor Z-VAD-FMK (Invivogen, San Diego, USA). Cells were pretreated with Z-VAD-FMK 20 μM. After 30 min, human TNFα 10 ng/ml, SM-164 100 nM and RIPK1 Inhibitor (0.0001, 0.001, 0.01, 0.02, 0.05, 0.1, 1, 10 uM) were treated for 24 h. Cell viability was measured by Cell Counting Kit 8 (CCK-8) (Dong-in, Seoul, Korea).

[2] = target: T1, RIPK1; experiment: Immunoblotting of TNFα induced phospho-RIPK1 (ser 166) levels; format: cell-based; details: HMC3 cells; Z-VAD-FMK, human TNFα 20 ng/ml, SM-164 100 nM; 7 h, serum free media; read-out: Cell-base RIPK1 activity: phspho-RIPK1 (Ser166)
Experimental: as §1
Biological activity of the compounds of RIPK1 inhibitor was determined by measuring their ability to inhibitor TNFα induced phospho-RIPK1 (ser 166) levels, phospho-RIPK3 levels, phospho-MLKL levels in HMC3 cells. Cells were pretreated with Z-VAD-FMK […]. After 30 min, human TNFα 20 ng/ml, SM-164 100 nM and RIPK1 inhibitor (0.1, 1, 10 nM) were treated for 7 h under serum free media. Cells were lysed with cold lysis buffer containing 25 mM HEPES pH 7.6, […] NaCl, 1% NP40, 1% sodium deoxycholate, 0.1% SDS, and protease inhibitor mixture (Bimake, Houston, USA) using sonicators. The cells were centrifuged at 15,000 rpm, 4° C. for 5 min. After protein concentration of the lysates (supernatants) was quantified using BCA assay (Thermo Fisher Scientific, Waltham, USA), lysates were mixed with LDS sample buffer and heating at […] for 10 min. (Invitrogen, California, USA). […] The membranes are placed in an image analyzer (Imagequant, LAS 500, GE Healthcare), connected to a computer which allows the image generation (software Image reader LAS 500).

| SMILES | IC50 [1] | IC50 [2] |
| --- | --- | --- |
| CN1C(=O)[C@@H](NC(=O)n2cc(Cc3cccc(F)c3)cn2)COc2ccc(OCc3ccc(F)cn3)cc21 [Example 58, (S)-4-(3-fluorobenzyl)-N-(7-((5-fluoropyridin-2-yl)methoxy)-5-methyl-4-oxo-2,3,4,5-tetrahydrobenzo[b][1,4]oxazepin-3-yl)-1H-pyrazole-1-carboxamide] | < 10 nM | < 10 nM |
| COC(=O)c1csc(COc2ccc3c(c2)N(C)C(=O)[C@@H](NC(=O)n2cc(Cc4cccc(F)c4)cn2)CO3)n1 [Example 65, Methyl (S)-2-(((3-(4-(3-fluorobenzyl)-1H-pyrazole-1-carboxamido)-5-methyl-4-oxo-2,3,4,5-tetrahydrobenzo[b][1,4]oxazepin-7-yl)oxy)methyl)thiazole-4-carboxylate] | < 10 nM | < 10 nM |
| CC(C)CCCOc1ccc2c(c1)N(C)C(=O)[C@@H](NC(=O)n1cc(Cc3cccc(F)c3)cn1)CO2 [Example 15, (S)-4-(3-fluorobenzyl)-N-(5-methyl-7-((4-methylpentyl)oxy)-4-oxo-2,3,4,5-tetrahydrobenzo[b][1,4]oxazepin-3-yl)-1H-pyrazole-1-carboxamide] | < 10 nM | < 10 nM |
| CN1C(=O)[C@@H](NC(=O)n2cc(Cc3cccc(F)c3)cn2)COc2ccc(OCCCC3CCCCC3)cc21 [Example 16, (S)—N-(7-(3-cyclohexylpropoxy)-5-methyl-4-oxo-2,3,4,5-tetrahydrobenzo[b][1,4]oxazepin-3-yl)-4-(3-fluorobenzyl)-1H-pyrazole-1-carboxamide] | < 10 nM | < 10 nM |
| CN1C(=O)[C@@H](NC(=O)n2cc(Cc3cccc(F)c3)cn2)COc2ccc(OCCCC(C)(C)O)cc21 [Example 26, (S)-4-(3-fluorobenzyl)-N-(7-((4-hydroxy-4-methylpentyl)oxy)-5-methyl-4-oxo-2,3,4,5-tetrahydrobenzo[b][1,4]oxazepin-3-yl)-1H-pyrazole-1-carboxamide] | < 10 nM | < 10 nM |
| CN1C(=O)[C@@H](NC(=O)n2cc(Cc3cccc(F)c3)cn2)COc2ccc(OCc3ccnc(F)c3)cc21 [Example 60, (S)-4-(3-fluorobenzyl)-N-(7-((2-fluoropyridin-4-yl)methoxy)-5-methyl-4-oxo-2,3,4,5-tetrahydrobenzo[b][1,4]oxazepin-3-yl)-1H-pyrazole-1-carboxamide] | < 10 nM | < 10 nM |
| CN(Cc1ccncc1)C(=O)c1ccc2c(c1)N(C)C(=O)[C@@H](NC(=O)n1cc(Cc3cccc(F)c3)cn1)CO2 [Example 11] | < 10 nM | < 10 nM |
| CN1C(=O)[C@@H](NC(=O)n2cc(Cc3cccc(F)c3)cn2)COc2ccc(OCCCC3(O)CCCCC3)cc21 [Example 27, (S)-4-(3-fluorobenzyl)-N-(7-(3-(1-hydroxycyclohexyl)propoxy)-5-methyl-4-oxo-2,3,4,5-tetrahydrobenzo[b][1,4]oxazepin-3-yl)-1H-pyrazole-1-carboxamide] | < 10 nM | < 10 nM |
| CN1C(=O)[C@@H](NC(=O)n2cc(Cc3cccc(F)c3)cn2)COc2ccc(OCC(=O)N3CCC(C(C)(C)O)CC3)cc21 [Example 43, (S)-4-(3-fluorobenzyl)-N-(7-(2-(4-(2-hydroxypropan-2-yl)piperidin-1-yl)-2-oxoethoxy)-5-methyl-4-oxo-2,3,4,5-tetrahydrobenzo[b][1,4]oxazepin-3-yl)-1H-pyrazole-1-carboxamide] | < 10 nM | < 10 nM |
| CN1C(=O)[C@@H](NC(=O)n2cc(Cc3cccc(F)c3)cn2)COc2ccc(OCC(=O)N3CC[C@H](O)C3)cc21 [Example 46, 4-(3-fluorobenzyl)-N—((S)-7-(2-((S)-3-hydroxypyrrolidin-1-yl)-2-oxoethoxy)-5-methyl-4-oxo-2,3,4,5-tetrahydrobenzo[b][1,4]oxazepin-3-yl)-1H-pyrazole-1-carboxamide] | 10 to 50 nM | < 10 nM |
| CN1C(=O)[C@@H](NC(=O)n2cc(Cc3cccc(F)c3)cn2)COc2ccc(OCC(=O)N3CCC(C)(C)CC3)cc21 [Example 37, (S)—N-(7-(2-(4,4-dimethylpiperidin-1-yl)-2-oxoethoxy)-5-methyl-4-oxo-2,3,4,5-tetrahydrobenzo[b][1,4]oxazepin-3-yl)-4-(3-fluorobenzyl)-1H-pyrazole-1-carboxamide] | < 10 nM | < 10 nM |
| CN1C(=O)[C@@H](NC(=O)n2cc(Cc3cccc(F)c3)cn2)COc2ccc(C(=O)N3CCC(F)(F)CC3)cc21 [Example 3] | 10 to 50 nM | 10 to 50 nM |
| CN1C(=O)[C@@H](NC(=O)n2cc(Cc3cccc(F)c3)cn2)COc2ccc(OCC(=O)N3CC(O)C3)cc21 [Example 50, (S)-4-(3-fluorobenzyl)-N-(7-(2-(3-hydroxyazetidin-1-yl)-2-oxoethoxy)-5-methyl-4-oxo-2,3,4,5-tetrahydrobenzo[b][1,4]oxazepin-3-yl)-1H-pyrazole-1-carboxamide] | < 10 nM | < 10 nM |
| CN1C(=O)[C@@H](NC(=O)n2cc(Cc3cccc(F)c3)cn2)COc2ccc(OCc3cn(CC(C)(C)O)nn3)cc21 [Example 68, (S)-4-(3-fluorobenzyl)-N-(7-((1-(2-hydroxy-2-methylpropyl)-1H-1,2,3-triazol-4-yl)methoxy)-5-methyl-4-oxo-2,3,4,5-tetrahydrobenzo[b][1,4]oxazepin-3-yl)-1H-pyrazole-1-carboxamide] | < 10 nM | < 10 nM |
| CN1C(=O)[C@@H](NC(=O)n2cc(Cc3cccc(F)c3)cn2)COc2ccc(OC3CCCCC3)cc21 [Example 30, (S)—N-(7-(cyclohexyloxy)-5-methyl-4-oxo-2,3,4,5-tetrahydrobenzo[b][1,4]oxazepin-3-yl)-4-(3-fluorobenzyl)-1H-pyrazole-1-carboxamide] | < 10 nM | < 10 nM |
| CN1C(=O)[C@@H](NC(=O)n2cc(Cc3cccc(F)c3)cn2)COc2ccc(OCCN3CCC(C)(O)CC3)cc21 [Example 18, (S)-4-(3-fluorobenzyl)-N-(7-(2-(4-hydroxy-4-methylpiperidin-1-yl)ethoxy)-5-methyl-4-oxo-2,3,4,5-tetrahydrobenzo[b][1,4]oxazepin-3-yl)-1H-pyrazole-1-carboxamide] | < 10 nM | < 10 nM |
| CN1C(=O)[C@@H](NC(=O)n2cc(Cc3cccc(F)c3)cn2)COc2ccc(OCC(=O)NC3CC3)cc21 [Example 51, (S)—N-(7-(2-(cyclopropylamino)-2-oxoethoxy)-5-methyl-4-oxo-2,3,4,5-tetrahydrobenzo[b][1,4]oxazepin-3-yl)-4-(3-fluorobenzyl)-1H-pyrazole-1-carboxamide] | < 10 nM | < 10 nM |
| CN1C(=O)[C@@H](NC(=O)n2cc(Cc3cccc(F)c3)cn2)COc2ccc(OCc3ccc(F)nc3)cc21 [Example 59, (S)-4-(3-fluorobenzyl)-N-(7-((6-fluoropyridin-3-yl)methoxy)-5-methyl-4-oxo-2,3,4,5-tetrahydrobenzo[b][1,4]oxazepin-3-yl)-1H-pyrazole-1-carboxamide] | < 10 nM | < 10 nM |
